Results from patent publication US20230139445A1, “BACTERIAL CELLS WITH IMPROVED TOLERANCE TO DIACIDS” (priority 2016, published 2023).
Where two headings read alike, the source gives them in different places.

What was measured:
[1] = system: Escherichia coli K-12 MG1655; experiment: Growth of K-12 MG1655 in varying concentrations of fumaric, itaconic, malic and succinic acid, Growth Profiler; type: cell-based
Description: Five colonies from wild-type K-12 MG1655 and 10 individual colonies deriving from each population were inoculated into 300 μL M9+1% glucose in 96 well deepwell plates and incubated in a 300 rpm plate shaker at 37° C. The next day, cells were diluted 10× in M9+1% glucose and 30 μL was transferred into clear-bottomed 96 well half-deepwell plates (with rectangular wells) containing M9+1% glucose and M9+1% glucose+52.78 g/L glutaric acid or 55.56 g/L adipic acid, such that the final concentration of glutaric acid or adipic acid was 47.5 g/L or 50 g/L, respectively. In addition, cryogenic glycerol stocks of the overnight culture were saved in a 96 well plate format. Half deepwell plates were incubated at 37° C. with 225 rpm shaking in a Growth Profiler (Enzyscreen), with optical scans of the plates taken at 15 minute intervals. Green pixel values integrated over a 1 mm diameter circular area in each well were converted to OD600 values using a previously determined calibration between OD600 and green pixel values.
Additionally, each evolved isolate was tested for cross-tolerance toward other dicarboxylic acids of interest. […] All diacids tested were either the neutral sodium salts, or the free diacid was neutralized with sodium hydroxide to pH 7.0 for testing.

[2] = system: Escherichia coli K-12 MG1655 and evolved isolates; type: cell-based; settings: 55 g/L malic acid
Method in brief: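 Wild-type MG1655 and evolved isolates, precultured overnight in M9 + 1% glucose at 37 °C, were diluted into M9 + 1% glucose. Growth at 37 °C, 225 rpm, scanned every 15 min; pixel values calibrated to OD600. Diacids tested as sodium salts or neutralized to pH 7.0.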

O=C(O)CC(O)C(=O)O (centres unmarked) [malic acid]
μ (mean) ([1]; growth rate of K-12 MG1655, 10 g/L diacid (sodium salt)): 0.686 h^1 | μ (mean) ([1]; growth rate of K-12 MG1655, 20 g/L diacid (sodium salt)): 0.639 h^1 | μ (mean) ([1]; growth rate of K-12 MG1655, 30 g/L diacid (sodium salt)): 0.526 h^1 | μ (mean) ([1]; growth rate of K-12 MG1655, 40 g/L diacid (sodium salt)): 0.410 h^1 | μ (mean) ([1]; growth rate of K-12 MG1655, 50 g/L diacid (sodium salt)): 0.287 h^1 | μ (mean) ([1]; growth rate of K-12 MG1655, 60 g/L diacid (sodium salt)): 0.154 h^1 | tlag (mean) ([1]; lag time of K-12 MG1655, 10 g/L diacid (sodium salt)): 5.9 h | tlag (mean) ([1]; lag time of K-12 MG1655, 20 g/L diacid (sodium salt)): 6.6 h | tlag (mean) ([1]; lag time of K-12 MG1655, 30 g/L diacid (sodium salt)): 8.0 h | tlag (mean) ([1]; lag time of K-12 MG1655, 40 g/L diacid (sodium salt)): 11.1 h | tlag (mean) ([1]; lag time of K-12 MG1655, 50 g/L diacid (sodium salt)): 16.9 h | tlag (mean) ([1]; lag time of K-12 MG1655, 60 g/L diacid (sodium salt)): 28.3 h | growth rate μ (mean) ([2]; strain ADIP1-1): 0.333 h⁻¹ | lag time tlag (mean) ([2]; strain ADIP1-1): 12.8 h | growth rate μ (mean) ([2]; strain ADIP1-9): 0.336 h⁻¹ | lag time tlag (mean) ([2]; strain ADIP1-9): 10.7 h | growth rate μ (mean) ([2]; strain ADIP2-5): 0.338 h⁻¹ | lag time tlag (mean) ([2]; strain ADIP2-5): 17.9 h | growth rate μ (mean) ([2]; strain ADIP2-6): 0.348 h⁻¹ | lag time tlag (mean) ([2]; strain ADIP2-6): 16.8 h | growth rate μ (mean) ([2]; strain ADIP2-10): 0.347 h⁻¹ | lag time tlag (mean) ([2]; strain ADIP2-10): 16.8 h | growth rate μ (mean) ([2]; strain ADIP3-2): 0.318 h⁻¹ | lag time tlag (mean) ([2]; strain ADIP3-2): 10.7 h | growth rate μ (mean) ([2]; strain ADIP3-4): 0.347 h⁻¹ | lag time tlag (mean) ([2]; strain ADIP3-4): 9.9 h | growth rate μ (mean) ([2]; strain ADIP3-8): 0.329 h⁻¹ | lag time tlag (mean) ([2]; strain ADIP3-8): 11.4 h | growth rate μ (mean) ([2]; strain ADIP4-1): 0.275 h⁻¹ | lag time tlag (mean) ([2]; strain ADIP4-1): 12.1 h | growth rate μ (mean) ([2]; strain ADIP4-8): 0.238 h⁻¹ | lag time tlag (mean) ([2]; strain ADIP4-8): 13.4 h | growth rate μ (mean) ([2]; strain ADIP5-2): 0.299 h⁻¹ | lag time tlag (mean) ([2]; strain ADIP5-2): 10.1 h | growth rate μ (mean) ([2]; strain ADIP5-6): 0.404 h⁻¹ | lag time tlag (mean) ([2]; strain ADIP5-6): 10.2 h | growth rate μ (mean) ([2]; strain ADIP6-3): 0.295 h⁻¹ | lag time tlag (mean) ([2]; strain ADIP6-3): 11.6 h | growth rate μ (mean) ([2]; strain ADIP6-9): 0.250 h⁻¹ | lag time tlag (mean) ([2]; strain ADIP6-9): 12.7 h | growth rate μ (mean) ([2]; strain ADIP6-10): 0.323 h⁻¹ | lag time tlag (mean) ([2]; strain ADIP6-10): 10.0 h | growth rate μ (mean) ([2]; strain ADIP7-2): 0.329 h⁻¹ | lag time tlag (mean) ([2]; strain ADIP7-2): 10.3 h | growth rate μ (mean) ([2]; strain ADIP7-5): 0.326 h⁻¹ | lag time tlag (mean) ([2]; strain ADIP7-5): 10.2 h | growth rate μ (mean) ([2]; strain ADIP8-3): 0.194 h⁻¹ | lag time tlag (mean) ([2]; strain ADIP8-3): 14.4 h | growth rate μ (mean) ([2]; strain ADIP8-7): 0.202 h⁻¹ | lag time tlag (mean) ([2]; strain ADIP8-7): 14.9 h | growth rate μ (mean) ([2]; strain ADIP8-10): 0.202 h⁻¹ | lag time tlag (mean) ([2]; strain ADIP8-10): 14.2 h | growth rate μ (mean) ([2]; strain GLUT1-3): 0.294 h⁻¹ | lag time tlag (mean) ([2]; strain GLUT1-3): 13.5 h | growth rate μ (mean) ([2]; strain GLUT1-9): 0.259 h⁻¹ | lag time tlag (mean) ([2]; strain GLUT1-9): 15.3 h | growth rate μ (mean) ([2]; strain GLUT1-10): 0.286 h⁻¹ | lag time tlag (mean) ([2]; strain GLUT1-10): 19.2 h | growth rate μ (mean) ([2]; strain GLUT2-1): 0.273 h⁻¹ | lag time tlag (mean) ([2]; strain GLUT2-1): 13.7 h | growth rate μ (mean) ([2]; strain GLUT2-9): 0.270 h⁻¹ | lag time tlag (mean) ([2]; strain GLUT2-9): 12.5 h | growth rate μ (mean) ([2]; strain GLUT2-10): 0.282 h⁻¹ | lag time tlag (mean) ([2]; strain GLUT2-10): 12.2 h | growth rate μ (mean) ([2]; strain GLUT3-5): 0.257 h⁻¹ | lag time tlag (mean) ([2]; strain GLUT3-5): 15.4 h | growth rate μ (mean) ([2]; strain GLUT3-7): 0.234 h⁻¹ | lag time tlag (mean) ([2]; strain GLUT3-7): 15.5 h | growth rate μ (mean) ([2]; strain GLUT3-9): 0.252 h⁻¹ | lag time tlag (mean) ([2]; strain GLUT3-9): 20.5 h | growth rate μ (mean) ([2]; strain GLUT4-1): 0.264 h⁻¹ | lag time tlag (mean) ([2]; strain GLUT4-1): 15.9 h | growth rate μ (mean) ([2]; strain GLUT4-4): 0.264 h⁻¹ | lag time tlag (mean) ([2]; strain GLUT4-4): 16.5 h | growth rate μ (mean) ([2]; strain GLUT4-10): 0.250 h⁻¹ | lag time tlag (mean) ([2]; strain GLUT4-10): 15.6 h | growth rate μ (mean) ([2]; strain GLUT5-4): 0.272 h⁻¹ | lag time tlag (mean) ([2]; strain GLUT5-4): 15.3 h | growth rate μ (mean) ([2]; strain GLUT5-5): 0.275 h⁻¹ | lag time tlag (mean) ([2]; strain GLUT5-5): 16.6 h | growth rate μ (mean) ([2]; strain GLUT5-9): 0.246 h⁻¹ | lag time tlag (mean) ([2]; strain GLUT5-9): 16.4 h | growth rate μ (mean) ([2]; strain GLUT6-4): 0.251 h⁻¹ | lag time tlag (mean) ([2]; strain GLUT6-4): 14.5 h | growth rate μ (mean) ([2]; strain GLUT6-5): 0.241 h⁻¹ | lag time tlag (mean) ([2]; strain GLUT6-5): 13.8 h | growth rate μ (mean) ([2]; strain GLUT6-10): 0.245 h⁻¹ | lag time tlag (mean) ([2]; strain GLUT6-10): 14.8 h | growth rate μ (mean) ([2]; strain GLUT7-2): 0.275 h⁻¹ | lag time tlag (mean) ([2]; strain GLUT7-2): 16.1 h | growth rate μ (mean) ([2]; strain GLUT7-6): 0.247 h⁻¹ | lag time tlag (mean) ([2]; strain GLUT7-6): 21.9 h | growth rate μ (mean) ([2]; strain GLUT7-7): 0.185 h⁻¹ | lag time tlag (mean) ([2]; strain GLUT7-7): 19.1 h | growth rate μ (mean) ([2]; strain GLUT8-5): 0.180 h⁻¹ | lag time tlag (mean) ([2]; strain GLUT8-5): 15.8 h | growth rate μ (mean) ([2]; strain GLUT8-6): 0.208 h⁻¹ | lag time tlag (mean) ([2]; strain GLUT8-6): 32.7 h | growth rate μ (mean) ([2]; strain GLUT8-9): 0.192 h⁻¹ | lag time tlag (mean) ([2]; strain GLUT8-9): 47.7 h | growth rate μ (mean) ([2]; strain MG1655 (Table 26)): 0.235 h⁻¹ | lag time tlag (mean) ([2]; strain MG1655 (Table 26)): 17.1 h | growth rate μ (mean) ([2]; strain MG1655 (Table 27)): 0.222 h⁻¹ | lag time tlag (mean) ([2]; strain MG1655 (Table 27)): 16.5 h
